Values after ≈ are worked out from the molar mass of the structure shown.
Experiments:
[1] = tested on: Streptococcus spp. spontaneous mutants; details: S. pneumoniae ATCC 49619; CLSI QC range shown in parentheses; cited from earlier work
[2] = tested on: E. coli spontaneous mutants; experiment: Broth microdilution MIC of spontaneous mutants; format: cell-based, Escherichia coli
Method: (§1) Select isolates were subcultured onto agar containing drug at the selection concentration, were identified by MALDI, and were frozen for broth microdilution MIC testing as described below.
(§2) To determine whether colonies growing on drug selection plates had elevated MIC values to the selecting antibiotic, susceptibility testing by broth microdilution was conducted on isolated mutants following methodology recommended by CLSI (1), (2), and (3) “Performance Standards for Antimicrobial Susceptibility Testing; Twenty-Eighth Informational Supplement.,” CLSI document M100-S28, 2018.
(§3) All wells in columns 2 through 12 of a standard 96-well microdilution plate (Costar 3795) were filled with 150 μL of the appropriate diluent. Then, 300 μL of the test agents were added to the wells of column 1 of the plates at […] the highest final concentration to be tested. Serial two-fold dilutions were made across the rows through column 11 using the Biomek 2000. The wells of column 12 contained no drug and served as the growth control wells. This plate served as the “mother plate” from which selected MIC assay plates or “daughter plates” were made.
(§4) 2 μL of drug solution from each well of a mother plate was added to each corresponding well of the daughter plate in a single step. A standardized inoculum of each aerobic test organism was prepared per CLSI methods to equal a 0.5 McFarland standard, followed by a dilution of 1:20 in MHB II. The plates were then inoculated with 10 μL of the diluted inoculum using the Biomek 2000 from low to high drug concentration, resulting in a final concentration of approximately 5×10^5 CFU/mL. An un-inoculated plate was incubated for the purpose of assessing solubility of the drug in the test media.
(§5) The plates for the aerobic tests were stacked 3-4 high, covered with a sterile lid on the top plate, and incubated aerobically at 35° C. for 18-20 hr. The MIC was recorded as the lowest concentration of drug that inhibited visible growth of the organism.

[3] = tested on: Streptococcus spp. spontaneous mutants; experiment: organism not typed; format: cell-based
Method: as §1, §2, §3, §4, §5

[4] = tested on: E. coli spontaneous mutants; details: E. coli ATCC 25922; CLSI QC range shown in parentheses; cited from earlier work

## CN(C)[C@@H]1C(O)=C(C(N)=O)C(=O)[C@@]2(O)C(O)=C3C(=O)c4c(O)cccc4[C@@](C)(O)[C@H]3C[C@@H]12 [TET]
[1]
  MIC, CLSI QC range: (0.06-0.5) μg/mL
[2]; E. coli ATCC 25922, selected on rifaximin 4X MIC, Colony A
  MIC: 0.5 µg/mL
[2]; E. coli ATCC 25922, selected on rifaximin 4X MIC, Colony B
  MIC: 1 µg/mL
[2]; E. coli ATCC 25922, selected on rifaximin 8X MIC, Colony A
  MIC: 1 µg/mL
[2]; E. coli ATCC 25922, selected on rifaximin 8X MIC, Colony B
  MIC: 1 µg/mL
[2]; E. coli ATCC 25922 Parent (Table 52)
  MIC: 1 µg/mL
[2]; E. coli ATCC 35218, selected on rifaximin 4X MIC, Colony A
  MIC: 2 µg/mL
[2]; E. coli ATCC 35218, selected on rifaximin 4X MIC, Colony B
  MIC: 1 µg/mL
[2]; E. coli ATCC 35218, selected on rifaximin 8X MIC, Colony A
  MIC: 0.5 µg/mL
[2]; E. coli ATCC 35218, selected on rifaximin 8X MIC, Colony B
  MIC: 2 µg/mL
[2]; E. coli ATCC 35218 Parent (Table 52)
  MIC: 1 µg/mL
[2]; E. coli MMX 1312, selected on ceftriaxone 4X MIC, Colony A
  MIC: >16 µg/mL
[2]; E. coli MMX 1312, selected on ceftriaxone 4X MIC, Colony B
  MIC: >16 µg/mL
[2]; E. coli MMX 1312, selected on ceftriaxone 4X MIC, Colony C
  MIC: >16 µg/mL
[2]; E. coli MMX 1312, selected on ceftriaxone 8X MIC, Colony A
  MIC: >16 µg/mL
[2]; E. coli MMX 1312, selected on ceftriaxone 8X MIC, Colony B
  MIC: >16 µg/mL
[2]; E. coli MMX 1312, selected on ceftriaxone 8X MIC, Colony C
  MIC: >16 µg/mL
[2]; E. coli MMX 1312, selected on rifaximin 4X MIC, Colony A
  MIC: >16 µg/mL
[2]; E. coli MMX 1312, selected on rifaximin 4X MIC, Colony B
  MIC: >16 µg/mL
[2]; E. coli MMX 1312, selected on rifaximin 8X MIC, Colony A
  MIC: >16 µg/mL
[2]; E. coli MMX 1312, selected on rifaximin 8X MIC, Colony B
  MIC: >16 µg/mL
[2]; E. coli MMX 1312 Parent
  MIC: >16 µg/mL
[2]; E. coli MMX 1312 Parent (Table 49)
  MIC: >16 µg/mL
[2]; E. coli MMX 1312 Parent (Table 52)
  MIC: >16 µg/mL
[2]; E. coli MMX 1312 mutant selected on meropenem 4X MIC, colony A
  MIC: >16 µg/mL
[2]; E. coli MMX 1312 mutant selected on meropenem 4X MIC, colony B
  MIC: >16 µg/mL
[2]; E. coli MMX 1312 mutant selected on meropenem 4X MIC, colony C
  MIC: 4 µg/mL
[2]; E. coli MMX 1312 mutant selected on meropenem 8X MIC, colony A
  MIC: >16 µg/mL
[2]; E. coli MMX 1312 mutant selected on meropenem 8X MIC, colony B
  MIC: >16 µg/mL
[2]; E. coli MMX 1312 mutant selected on meropenem 8X MIC, colony C
  MIC: >16 µg/mL
[3]; S. agaloctiae ATCC 13813, selected on rifaximin 4X MIC, Colony A
  MIC: 0.12 µg/mL (≈ 0.27 µM)
[3]; S. agaloctiae ATCC 13813, selected on rifaximin 4X MIC, Colony B
  MIC: 0.12 µg/mL (≈ 0.27 µM)
[3]; S. agaloctiae ATCC 13813, selected on rifaximin 8X MIC, Colony A
  MIC: 0.12 µg/mL (≈ 0.27 µM)
[3]; S. agaloctiae ATCC 13813, selected on rifaximin 8X MIC, Colony B
  MIC: 0.25 µg/mL (≈ 0.563 µM)
[3]; S. agaloctiae ATCC 13813 Parent
  MIC: 0.12 µg/mL (≈ 0.27 µM)
[3]; S. pneumoniae ATCC 49619, selected on rifaximin 4X MIC, Colony A
  MIC: 0.06 µg/mL (≈ 0.135 µM)
[3]; S. pneumoniae ATCC 49619, selected on rifaximin 4X MIC, Colony B
  MIC: 0.06 µg/mL (≈ 0.135 µM)
[3]; S. pneumoniae ATCC 49619, selected on rifaximin 8X MIC, Colony A
  MIC: 0.06 µg/mL (≈ 0.135 µM)
[3]; S. pneumoniae ATCC 49619, selected on rifaximin 8X MIC, Colony B
  MIC: 0.06 µg/mL (≈ 0.135 µM)
[3]; S. pneumoniae ATCC 49619 Parent
  MIC: 0.12 µg/mL (≈ 0.27 µM)
[3]; S. pyogenes ATCC 49399, selected on rifaximin 4X MIC, Colony A
  MIC: 0.12 µg/mL (≈ 0.27 µM)
[3]; S. pyogenes ATCC 49399, selected on rifaximin 4X MIC, Colony B
  MIC: 0.12 µg/mL (≈ 0.27 µM)
[3]; S. pyogenes ATCC 49399, selected on rifaximin 8X MIC, Colony A
  MIC: 0.12 µg/mL (≈ 0.27 µM)
[3]; S. pyogenes ATCC 49399, selected on rifaximin 8X MIC, Colony B
  MIC: 0.12 µg/mL (≈ 0.27 µM)
[3]; S. pyogenes ATCC 49399 Parent
  MIC: 0.12 µg/mL (≈ 0.27 µM)
[4]
  MIC, CLSI QC range: (0.5-2) μg/mL
